According to PMC7074166, “Screening for Small Molecule Modulators of Trypanosoma brucei Hsp70 Chaperone Activity Based upon Alcyonarian Coral-Derived Natural Products” (Marine Drugs, 2020):
Where two headings read alike, the source gives them in different places.

Test system: bloodstream form T. b. brucei parasites
Test: Resazurin-based anti-trypanosomal assay on bloodstream form T. b. brucei parasites
Type: cell-based, Trypanosoma brucei brucei
Settings: for IC50: Trypanosoma brucei, 48 h
Method: Bloodstream form T. b. brucei Lister 927 variant 221 strain parasites were cultured in filter sterilized complete Iscoves Modified Dulbeccos Media (IMDM) based HM1-9 medium (IMDM base powder, […] sodium bicarbonate, 1 mM hypoxanthine, 1 mM sodium pyruvate, 0.16 mM thymidine, 0.05 mM bathocuprone sulphate acid, 10% (v/v) heat inactivated foetal bovine serum, 1.5 mM L-cysteine, 0.2 mM β-mercaptoethanol, pH 7.5) in a humidified chamber at 37 °C with an atmosphere of 5% CO2. Parasite growth was monitored using a Neubauer haemocytometer to count the cell number, after which cells were diluted, according to their density, in the described pre-warmed media.
All compounds of interest were resuspended to stocks of 30 mM in DMSO and stored at −80 °C prior to use in in vitro experiments. For assessment of anti-trypanosomal activity, compounds were added to in vitro cultures of bloodstream form T. b. brucei parasites (1 × 10^5 cells/mL) in 96-well plates at a fixed concentration of 20 μM. After an incubation period of 48 h, the number of parasites surviving drug exposure were determined using a resazurin-based cytotoxicity assay. Resazurin is an oxidation–reduction sensitive dye that is reduced by living cells to resorufin. Resorufin is a fluorophore (Excitation560/Emission590) and thus was quantified in a multi-well fluorescence plate reader. Results are expressed as % parasite viability—the resorufin fluorescence in small molecule-treated wells relative to untreated controls. Assessment of each small molecule was conducted in duplicate, with error bars representing standard deviation (SD). […] The compounds were added to in vitro cultures of bloodstream form T. b. brucei parasites (1 × 10^5 cells/mL) in 96-well plates in a 3-fold dilution series with 100 μM as the highest concentration. After an incubation period of 48 h, the number of parasites surviving drug exposure were determined as previously mentioned. The % parasite viability was determined as previously mentioned. The IC50 (the concentration of compound required to decrease cell viability of T. b. brucei parasites by 50% compared to those grown in the absence of the compound) values for each of the compounds were determined from a dose–response curve by non-linear regression generated using GraphPad Prism® (v. 7.0; San Diego, CA, USA) software. For comparative purposes, pentamidine at a fixed concentration of 1 μM was employed as a drug standard.

[1] = Table 1, T. b. brucei parasites cultured in vitro, dose-response, read-out: IC50/μM
[2] = Table S1, 48 select compounds, T. b. brucei, read-out: IC50/

Compound	IC50 [1]	IC50 [2]	anti-trypanosomal activity (SAR statement) (T. b. brucei, screen at 20 μM)
CC(C)=CCC/C(C)=C/CCC(C)=CCn1ccc(=O)[nH]c1=O [Compound 55, 1-((6E)-3,7,11-Trimethyldodeca-2,6,10-trien-1-yl)pyrimidine-2,4(1H,3H)-dione]	16.5 µM	16.5 µM	–
CC(C)=CCC/C(C)=C/CC/C(C)=C/CC/C(C)=C\Cn1ccc(=O)[nH]c1=O [Compound 56, 1-((2Z,6E,10E)-3,7,11,15-Tetramethylhexadeca-2,6,10,14-tetraen-1-yl)pyrimidine-2,4(1H,3H)-dione]	6.2 µM	–	–
CC(C)=CCC/C(C)=C/CC/C(C)=C/CC/C(C)=C/Cn1cc(C)c(=O)[nH]c1=O [Compound 59, 5-Methyl-1-((2E,6E,10E)-3,7,11,15-tetramethylhexadeca-2,6,10,14-tetraen-1-yl)pyrimidine-2,4(1H,3H)-dione]	15.8 µM	–	–
CC(C)=CCC/C(C)=C/CCC(C)=CCN1C(=O)c2ccccc2C1=O [Compound 68, 2-((6E)-3,7,11-Trimethyldodeca-2,6,10-trien-1-yl)isoindoline-1,3-dione]	32.2 µM	32.2 µM	–
CC(C)=CCC/C(C)=C/CC/C(C)=C/CC/C(C)=C/CN1C(=O)c2ccccc2C1=O [Compound 69, 2-((2E,6E,10E)-3,7,11,15-Tetramethylhexadeca-2,6,10,14-tetraen-1-yl)isoindoline-1,3-dione]	9.2 µM	9.16 µM	–
CC(C)=CCC/C(C)=C/CCC(C)=CCn1ccnc1 [Compound 71, 1-((6E)-3,7,11-Trimethyldodeca-2,6,10-trien-1-yl)-1H-imidazole]	26.8 µM	26.8 µM	–
CC(C)=CCC/C(C)=C/CC/C(C)=C/CC/C(C)=C/Cn1ccnc1 [Compound 72, 1-((2E,6E,10E)-3,7,11,15-Tetramethylhexadeca-2,6,10,14-tetraen-1-yl)-1H-imidazole]	3.4 µM	3.42 µM	–
CC(C)=CCC/C(C)=C/CC/C(C)=C\CNC=O [Compound 74, N-((2Z,6E)-3,7,11-Trimethyldodeca-2,6,10-trien-1-yl)formamide]	27.3 µM	27.3 µM	–
CC(C)=CCC/C(C)=C/CCC(C)=CCNC=O [Compound 75, N-((6E)-3,7,11-trimethyldodeca-2,6,10-trien-1-yl)formamide]	–	–	inactive
CC(C)=CCC/C(C)=C/CC/C(C)=C/CC/C(C)=C\CNC=O [Compound 76, N-((2Z,6E,10E)-3,7,11,15-Tetramethylhexadeca-2,6,10,14-tetraen-1-yl)formamide]	11 µM	11 µM	–
CC(C)=CCC/C(C)=C/CC/C(C)=C/CC/C(C)=C/CNC=O [Compound 77, N-((2E,6E,10E)-3,7,11,15-tetramethylhexadeca-2,6,10,14-tetraen-1-yl)formamide]	41.8 µM	41.8 µM	–
CC(C)=CCC/C(C)=C/CC/C(C)=C/CC/C(C)=C/CN(C)C=O [Compound 80, N-Methyl-N-((2E,6E,10E)-3,7,11,15-tetramethylhexadeca-2,6,10,14-tetraen-1-yl)formamide]	41.2 µM	41.2 µM	–
CC(=O)NC/C=C(/C)CC/C=C(\C)CCC=C(C)C [Compound 82, N-((2Z,6E)-3,7,11-Trimethyldodeca-2,6,10-trien-1-yl)acetamide]	4.5 µM	4.49 µM	–
CC(=O)NC/C=C(\C)CC/C=C(\C)CCC=C(C)C [Compound 83, N-((2E,6E)-3,7,11-trimethyldodeca-2,6,10-trien-1-yl)acetamide]	21.5 µM	21.5 µM	–
CC(=O)NC/C=C(/C)CC/C=C(\C)CC/C=C(\C)CCC=C(C)C [Compound 84, N-((2Z,6E,10E)-3,7,11,15-Tetramethylhexadeca-2,6,10,14-tetraen-1-yl)acetamide]	2.2 µM	2.17 µM	–
CC(=O)NC/C=C(\C)CC/C=C(\C)CC/C=C(\C)CCC=C(C)C [Compound 85, N-((2E,6E,10E)-3,7,11,15-tetramethylhexadeca-2,6,10,14-tetraen-1-yl)acetamide]	3.1 µM	3.14 µM	–
